Entries after “also recorded” stand apart in the source; their conditions may differ. Read-outs that look alike come from different tables or passages of the source.
What was measured:
OVCAR429 [1] = experiment: Cell viability / proliferation assay (Cell Titer Glo, 72 h); assay type: cell-based
Experimental: Cells were allowed to settle and attach overnight. Cells plated in triplicate for each concentration and control examined. […] Cells were incubated with compound or relevant controls for 72 hours. On Day 4, 72 hours after treatment, cells were analyzed by Cell Titer Glo (PromegaG7573) per manufacturer's instructions. Plates were read in luminescence mode on a PheraStarFS plate reader. Data was collected, replicates were averaged, standard deviations calculated and analyzed through nonlinear regression analysis with four (4) parameters to generate IC50s for each cell line tested.

[2] = tested on: OVCAR8, OVCAR429, OVCAR4, and IGROV1 cells; experiment: Metabolomics (LC-MS/MS metabolic profiling); assay type: cell-based; details: 1 μM, 24 hours; muted or absent in non-responder lines
Experimental: OVCAR8 cells were plated at 3×10^6 cells per 10 cm dish and OVCAR429, IGROV1, and OVCAR4 were plated at 3.5×10^6 cells per 10 cm dish 24 hours (24 h) prior to treatment. […] On day 1 (d.1), 2 hours (2 h) prior to harvest, samples were washed with 5 mL media containing 10% dialyzed FBS. 10 mL of media was added to plates and plates were returned to the incubator for 2 h. Media was then aspirated from plates and 4 mL of 80% chilled MeOH (−80° C.) was immediately added. Plates were incubated at −80° C. for 15 minutes. Cells were then scraped with cell scraper to release cells while keeping plates on dry ice. The MeOH/cell lysate mixture was collected and transferred to conical tubes on dry ice. Tubes were centrifuged at full speed in 4° C. chilled centrifuge for 5 minutes. Supernatant was transferred to another set of conical tubes on dry ice by decanting. The remaining pellet was re-suspended in 500 μL of cold MeOH and the mixture was moved to a microcentrifuge tube. Microfuge tubes were spun at full speed for 5 minutes in 4° C. chilled microcentrifuge. […]
Differentially abundance analysis of metabolite levels was carried out using a moderated t-test function from Bioconductor's limma package (Smyth 2005). […] The normalization factor was calculated by first defining a vector, Nmed, to be the median peak area for each metabolite across a set of samples. […]

[3] = tested on: responder cells OVCAR420, OVCAR429; experiment: Analysis of reactive oxygen species production (CM-H2DCFDA, flow cytometry); assay type: cell-based; details: 1 μM, 48 hours
Experimental: One day prior to the experiment, OVCAR-8 and OVCAR420 cells were seeded in 6 well dishes (250,000 cells per well). […] The following day, an allocated well was treated with hydrogen peroxide for 20-30 minutes as a positive control for ROS generation. All wells were then stained with CM-H2DCFDA (5 μM, Life Technologies) for 30 minutes at 37° C., washed with 1×PBS, harvested by trypsinization, and re-suspended in 400 μl phenol-free RPMI medium. Cells were strained through a […] cell strainer and analyzed using a flow cytometer (LSR Fortessa).
For each condition, calculation of mean fluorescence intensity allows for the comparison of ROS accumulation between control and treated samples. Shown are responder cells: (a) OVCAR420; (b) OVCAR429, with GFP-A on the x-axis, and count on the y-axis.

OVCAR420 [4] = experiment: Analysis of glutathione levels (GSH-Glo); assay type: cell-based; details: OVCAR420, 1 μM, 24 hours
Experimental: (§1) Analysis of Glutathione Levels: Cells were plated in 96-well Corning Costar 3603 at 10,000 cells/well on Day 0. Cells were allowed to settle and attach overnight. […] Cells were incubated with compound or relevant controls for 24 hours. On Day 2, 24 hours after treatment, cells were analyzed by GSH-Glo (PromegaV6912) per manufacturer's instructions. […] Duplicate wells were plated and then stained with crystal violet in order to correct for differences in cell growth as described below.
(§2) GLS-dependence is driven by addiction to glutamine-dependent, glutathione-mediated redox maintenance in OVCA responder cell lines. […] Consistent with this hypothesis, GLS-1 inhibition induced a significant decrease in intracellular glutathione and a concurrent increase in reactive oxygen species (FIGS. 7 and 8) in responder lines.

OVCAR429 [5] = experiment: Analysis of glutathione levels (GSH-Glo); assay type: cell-based; details: OVCAR429, 1 μM, 24 hours
Experimental: as §1, §2

OVCAR4 [6] = experiment: Analysis of glutathione levels (GSH-Glo); assay type: cell-based; details: OVCAR4 (non-responder), 24 hours
Experimental: as §1, §2

OVCAR8 [7] = experiment: Analysis of glutathione levels (GSH-Glo); assay type: cell-based; details: OVCAR8, 1 μM, 24 hours
Experimental: as §1, §2

OVCAR8 [8] = experiment: Cell viability / proliferation assay (Cell Titer Glo, 72 h); assay type: cell-based
IGROV1 = experiment: as above; assay type: cell-based
Excerpt: (§3) Cells were allowed to settle and attach overnight.

A2780 = experiment: as above; assay type: cell-based
Excerpt: as §3

OVCAR4 [9] = experiment: as above; assay type: cell-based
Excerpt: as §3

[10] = tested on: OVCAR8 and OVCAR420 cells; experiment: DNA damage staining and quantification (γH2AX foci); assay type: cell-based; details: 48 hours
Experimental: Cells were then fixed using 4% Paraformaldehyde and permeabilized using 0.5% TritonX100. Fixed cells were stained with Anti-γH2AX, rabbit (Bethyl IHC-00059) (1:500) for 2 h at 37 C. The secondary antibody used was Alexa Fluor 546 donkey anti-rabbit (Invitrogen A10040) (1:150) simultaneously with Hoechst 33342, Trihydrochloride, Trihydrate (Invitrogen, H3570) (1:1000) for 1 h at 37 C. DNA damage was measured as a γH2AX signal per nucleus using PerkinElmer High Content Screening System Operetta with the Harmony software. First, nuclei were selected using Hoechst staining. Then, single cells were gated based on nucleus size and shape. Apoptotic and mitotic cells were excluded based on maximum Hoechst intensity in the nucleus. DNA damage foci were identified within the gated nuclei using the “find spots in Alexa 546 channel” analysis block. Finally, the total intensity of Alexa 546 within all “spots” in the nucleus, or the total number of spots in the nucleus, averaged per cell, was calculated.
GLS-1 inhibition induces oxidative stress that leads to accumulation of DNA damage. […] Moreover, we observed an accumulation of γH2AX foci, a marker of DNA damage, and the likely cause of anti-proliferative effects observed upon GLS-1 inhibition (FIG. 11).

OVCAR420 [11] = experiment: cells
Experimental: Cell culture media: All cells were grown in RPMI-1640 (Gibco11875-119) with 2 mM Glutamine+10% FBS (Gibco16000-044) unless otherwise noted.
Cells were plated in black, 96-well Corning Costar 3603 at densities to allow for Log phase growth throughout the experiment (see table below) on Day 0. Cells were allowed to settle and attach overnight. Cells plated in triplicate for each concentration and control examined. […] Cells were incubated with compound or relevant controls for 72 hours. On Day 4, 72 hours after treatment, cells were analyzed by Cell Titer Glo (PromegaG7573) per manufacturer's instructions. Plates were read in luminescence mode on a PheraStarFS plate reader. Data was collected, replicates were averaged, standard deviations calculated and analyzed through nonlinear regression analysis with four (4) parameters to generate IC50s for each cell line tested.

[12] = tested on: ASNSlow HGSOC patient-derived xenograft; experiment: ASNSlow HGSOC patient-derived xenograft (PDX) model; assay type: in vivo, NOD/SCID mice; details: orally 100 mg/kg, BID for 39 days; p<0.0001 vs vehicle control
Experimental: The the anti-tumor effects of Compound 2 were tested in vivo in an ASNS^low HGSOC patient-derived xenograft (PDX) model using human tumor tissue that was identified through immunohistochemistry to be ASNS^low and characterized through histological phenotyping to be of a high-grade serous subtype, implanted in to NOD/SCID mice.
Compound 2 inhibits tumor growth of an ASNS^low PDX xenograft as a single agent in NOD/SCID mice (FIG. 23(b)). In this experiment, Compound 2, administered orally at a dose of 100 mg/kg, BID for 39 days inhibited tumor growth (TGI=50%, p<0.0001 for tumor volumes after treatment with Compound 2 vs vehicle control).

OVCAR-8 tumors = experiment: Glutamate:glutamine ratio in OVCAR-8 tumor lysates (mass spec); assay type: in vivo; details: dosed for 1, 7 or 21 days
Experimental: OVCAR-8 tumors were dosed for 1, 7 or 21 days and then harvested from animals. Tumor lysates were analyzed by mass spec for the presence of glutamine and glutamate.

[13] = tested on: OVCAR-8 subcutaneous xenografts; experiment: OVCAR-8 subcutaneous xenograft; assay type: in vivo, athymic mice; details: 100 mpk, twice a day, oral gavage, three weeks
Experimental: OVCAR-8 cells were implanted subcutaneously into athymic mice and allowed to grow into an established tumor. Animals were then treated with compound 2, for three weeks (100 mpk, twice a day) by oral gavage.

SK-OV-3 cells = experiment: Orthotopic model of ovarian cancer (SK-OV-3, intraperitoneal); assay type: in vivo, athymic nude mice; details: day 21; compared to vehicle or paclitaxel alone
Experimental: SK-OV-3 cells were injected into the intraperitoneal cavity of athymic nude mice and allow to grow for 7 days. At day 7, animals were treated with the in vivo tool compound to inhibit GLS-1 and animals were monitored for clinical disease signs.

| IC50 (OVCAR429 [1]) | IC50 (OVCAR429 [1]; OVCAR429, 72 h, read-out: IC50, viability (relative to DMSO)) | IC50 (OVCAR8 [8]; Homo sapiens, OVCAR-8, OVCAR8, 72 h, read-out: IC50, viability (relative to DMSO)) | IC50 (OVCAR420 [11]) | Compound | response, 72 hour viability (OVCAR429 [1]; OVCAR429) | changes in metabolite levels [2] | accumulation of intracellular ROS [3] | GSH levels (OVCAR420 [4]) | GSH levels (OVCAR429 [5]) | GSH levels (OVCAR4 [6]) | GSH levels (OVCAR8 [7]) | response, 72 hour viability (OVCAR8 [8]; OVCAR8) | response, 72 hour viability (IGROV1) | response, viability (A2780) | response, viability (OVCAR4 [9]) | DNA damage (γH2AX foci per nuclei) [10] | TGI (tumor growth inhibition) [12] | glutamate:glutamine ratio in tumors (OVCAR-8 tumors) | tumor growth (tumor volume) [13] | combined nodule weight per animal (SK-OV-3 cells) |
| --- | --- | --- | --- | --- | --- | --- | --- | --- | --- | --- | --- | --- | --- | --- | --- | --- | --- | --- | --- | --- |
| 76 nM | 59 nM | 13 nM | 59 nM | O=C(Cc1cccc(OC(F)(F)F)c1)Nc1ccc(CCCCc2nnc(NC(=O)Cc3ccccn3)s2)nn1 [Compound 1, 2-(pyridin-2-yl)-N-{5-[4-(6-{2-[3-(trifluoromethoxy)phenyl]acetamido}pyridazin-3-yl)butyl]-1,3,4-thiadiazol-2-yl}acetamide] | nM sensitivity | decrease in TCA cycle activity | induces an accumulation of ROS | significantly decreased | significantly decreased | does not show a significant decrease | significantly decreased | nM sensitivity | resistant | no response | resistant; also recorded: no response | induces DNA damage |  |  |  |  |
|  |  |  |  | CNC(=O)c1cn(C[C@H](F)CCc2ccc(NC(=O)Cc3cc(OC4CC(F)(F)C4)cc(C)n3)nn2)nn1 [Compound 2, (R)-1-(4-(6-(2-(4-(3,3-difluorocyclobutoxy)-6-methylpyridin-2-yl)acetamido)pyridazin-3-yl)-2-fluorobutyl)-N-methyl-1H-1,2,3-triazole-4-carboxamide] |  |  |  |  |  |  |  |  |  |  |  |  | 50% | altered glutamine metabolism | significant tumor growth inhibition | robust reduction |
